Laboratory results reported in patent US20120115845A1, “THERAPEUTIC AGENTS” (priority 2007, published 2012).

How the values were obtained:
human GHS receptor [1] = biological target: T1, human GHS receptor (Homo sapiens, UniProt Q92847); test: Ghrelin IP1 agonist assay (IP1 HTRF); type: cell-based; parameters: expressed in transfected cells; host or cells: HEK293s; settings: for Emax: 2 h, agonist effect as % maximal effect of GHRP-6 (5 μM), read-out: h IP1 ag %; for EC50: HEK293s cells stably expressing human GHS receptor, 2 hours at 37° C., read-out: h IP1 ag EC50
Outline: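 Cells: HEK293s stably expressing human GHS receptor, in stimulation buffer containing 0.02% fatty acid free BSA.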

human GHS receptor [2] = biological target: T1, human GHS receptor; test: h bind IC50 (binding assay, Table 1); settings: human receptor; Table 1

T1 sequence (Q92847 whole entry): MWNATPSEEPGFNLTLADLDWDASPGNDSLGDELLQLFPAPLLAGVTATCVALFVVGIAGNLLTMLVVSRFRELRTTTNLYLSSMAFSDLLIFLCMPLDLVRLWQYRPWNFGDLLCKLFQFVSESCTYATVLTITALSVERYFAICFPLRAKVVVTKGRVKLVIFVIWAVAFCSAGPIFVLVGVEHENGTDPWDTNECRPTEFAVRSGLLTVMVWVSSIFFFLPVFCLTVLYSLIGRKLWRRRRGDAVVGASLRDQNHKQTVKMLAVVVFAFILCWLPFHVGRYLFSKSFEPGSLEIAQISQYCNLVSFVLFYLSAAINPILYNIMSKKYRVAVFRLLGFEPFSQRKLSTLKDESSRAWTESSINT

O=C(NC(=O)c1ccccc1Cl)Nc1nc2ccc(S(=O)(=O)CCCN3CCS(=O)(=O)CC3)cc2s1 [Example 150, 2-Chloro-N-[[6-[3-(1,1-dioxo-1,4-thiazinan-4-yl)propylsulfonyl]benzothiazol-2-yl]carbamoyl]benzamide]
Emax (human GHS receptor [1]): 33.4% | EC50 (human GHS receptor [1]): 30.9 nM | IC50 (human GHS receptor [2]): 52.7 nM

O=C(NC(=O)c1ccccc1Cl)Nc1nc2ccc(S(=O)(=O)CCO)cc2s1 [Example 41, 2-Chloro-N-[[6-(2-hydroxyethylsulfonyl)benzothiazol-2-yl]carbamoyl]benzamide]
Emax (human GHS receptor [1]): 18.1% | EC50 (human GHS receptor [1]): 95.8 nM | IC50 (human GHS receptor [2]): 535 nM

CC(C)(C)OC(=O)N1CC(Oc2ccc(Cl)c(C(=O)NC(=O)Nc3nc4ccc(S(C)(=O)=O)cc4s3)c2)C1 [Example 252, tert-buty 3-(4-chloro-3-(6-(methylsulfonyl)benzo[d]thiazol-2-ylcarbamoyl-carbamoyl)phenoxy)azetidine-1-carboxylate]
Emax (human GHS receptor [1]): 1% | EC50 (human GHS receptor [1]): 27.7 nM | IC50 (human GHS receptor [2]): 18.7 nM

CC(=O)NC1CC(S(=O)(=O)c2ccc3nc(NC(=O)NC(=O)c4ccccc4Cl)sc3c2)C1 (stereo not drawn) [Example 223, N-[[6-(3-Acetamidocyclobutyl)sulfonylbenzothiazol-2-yl]carbamoyl]-2-chlorobenzamide]
Emax (human GHS receptor [1]): 24.8% | EC50 (human GHS receptor [1]): 62.1 nM | IC50 (human GHS receptor [2]): 95.8 nM

Cc1ccn(-c2ccc(C(=O)NC(=O)Nc3nc4ccc(S(=O)(=O)CCCN5CCN(C)CC5)cc4s3)c(Cl)c2)n1 [Example 212, 2-Chloro-N-[[6-[3-(4-methylpiperazin-1-yl)propylsulfonyl]benzothiazol-2-yl]carbamoyl]-4-(3-methylpyrazol-1-yl)benzamide]
Emax (human GHS receptor [1]): 27.6% | EC50 (human GHS receptor [1]): 2.03 nM | IC50 (human GHS receptor [2]): 0.5 nM

NC1CC(S(=O)(=O)c2ccc3nc(NC(=O)NC(=O)c4ccccc4Cl)sc3c2)C1 (stereo not drawn) [Example 214, N-[[6-(3-Aminocyclobutyl)sulfonylbenzothiazol-2-yl]carbamoyl]-2-chloro-benzamide]
Emax (human GHS receptor [1]): 52.1% | EC50 (human GHS receptor [1]): 12.4 nM | IC50 (human GHS receptor [2]): 32.6 nM

CN(C)[C@H]1CCN(c2ccc(Cl)c(C(=O)NC(=O)Nc3nc4ccc(S(C)(=O)=O)cc4s3)c2)C1 [Example 235, (S)-2-chloro-5-(3-(dimethylamino)pyrrolidin-1-yl)-N-(6-(methylsulfonyl)benzo[d]thiazol-2-ylcarbamoyl) benzamide]
Emax (human GHS receptor [1]): 19.6% | EC50 (human GHS receptor [1]): ≥ 20000 nM | IC50 (human GHS receptor [2]): 22.7 nM

CC(C)(C)OC(=O)N1CCN(CCCS(=O)(=O)c2ccc3nc(NC(=O)NC(=O)c4ccccc4Cl)sc3c2)CC1 [Example 205, tert-Butyl 4-[3-[2-[(2-chlorobenzoyl)carbamoylamino]benzothiazol-6-yl]sulfonylpropyl]piperazine-1-carboxylate]
Emax (human GHS receptor [1]): 39.5% | EC50 (human GHS receptor [1]): 2 nM | IC50 (human GHS receptor [2]): 5.3 nM

O=C(NC(=O)c1ccccc1Cl)Nc1nc2ccc(S(=O)(=O)CCCCl)cc2s1 [Example 148, 2-Chloro-N-[[6-(3-chloropropylsulfonyl)benzothiazol-2-yl]carbamoyl]benzamide]
Emax (human GHS receptor [1]): 17.7% | EC50 (human GHS receptor [1]): 52.9 nM | IC50 (human GHS receptor [2]): 830 nM

O=C(NC(=O)c1ccccc1Cl)Nc1nc2ccc(S(=O)(=O)CCNC3CCC3)cc2s1 [Example 25, 2-Chloro-N-[[6-[2-(cyclobutylamino)ethylsulfonyl]benzothiazol-2-yl]carbamoyl]benzamide]
Emax (human GHS receptor [1]): 34.7% | EC50 (human GHS receptor [1]): 13.8 nM | IC50 (human GHS receptor [2]): 189 nM

CC(C)(C)OC(=O)N1CCC(CS(=O)(=O)c2ccc3nc(NC(=O)NC(=O)c4ccccc4Cl)sc3c2)CC1 [Example 217, tert-Butyl 4-[[2-[(2-chlorobenzoyl)carbamoylamino]benzothiazol-6-yl]sulfonylmethyl]piperidine-1-carboxylate]
Emax (human GHS receptor [1]): 36.9% | EC50 (human GHS receptor [1]): 118 nM | IC50 (human GHS receptor [2]): 70.4 nM

CS(=O)(=O)c1ccc2nc(NC(=O)NC(=O)c3ccccc3Oc3ccccc3)sc2c1 [Example 127, N-[(6-Methylsulfonylbenzothiazol-2-yl)carbamoyl]-2-phenoxy-benzamide]
Emax (human GHS receptor [1]): 36.6% | EC50 (human GHS receptor [1]): 320 nM | IC50 (human GHS receptor [2]): 56.1 nM
